This is an account of results in patent US20100137314A1, “HARMFUL ORGANISM CONTROL COMPOSITION” (priority 2007, published 2010).

The subject of experiment [1] is Bemisia tabaci. Briefly: Test Example 1: cabbage leaf disc immersion test, life or death of Bemisia tabaci imagoes after 4 days. It is filed as in vivo. The note with it: foliar, 96 h, compound X alone 1000 ppm, cabbage leaf disc immersed 30 seconds, read-out: Pest controlling value (%). How it is done:
Ten parts of the compound X was dissolved in 40 parts of xylene and 40 parts of N,N-dimethylformamide, and thereto was added 10 parts of Sorpol 3005X (manufactured by TOHO Chemical Industry Co., LTD.). The mixture was stirred well to prepare a formulation. Separately, 10 parts of any one of the compound I-(5), the compound I-(34), the compound I-(68), the compound I-(70), the compound I-(74), the compound I-(115), the compound I-(117), the compound I-(119), the compound I-(204) and the compound I-(213) was dissolved in 40 parts of xylene and 40 parts of N,N-dimethylformamide, and thereto was added 10 parts of Sorpol 3005X (manufactured by TOHO Chemical Industry Co., LTD.). The mixture was stirred well to prepare a formulation. The formulation of the compound X was diluted with water to a predetermined concentration (1000 ppm). […] After 4 days, the life or death of the Bemisia tabaci imagoes was determined, and a controlling value was calculated by the following equation: […] wherein Cb: the number of insects in a non-treated section before treatment, Cai: the number of insects in a non-treated section on observation, Tb: the number of insects in a treated-section before treatment, Tai: the number of insects in a treated section on observation. […]

Experiment [2] relates to Bemisia tabaci. Briefly: Test Example 2: cabbage leaf disc immersion test, life or death of Bemisia tabaci imagoes after 2 days. The settings on record: compound X alone 2000 ppm. Format: in vivo. How it is done: Ten parts of the compound I-(138) was dissolved in 40 parts of xylene and 40 parts of N,N-dimethylformamide, and thereto was added 10 parts of Sorpol 3005X (manufactured by TOHO Chemical Industry Co., LTD.). The mixture was stirred well to prepare a formulation.
The formulation of the compound X prepared in Test Example 1 was diluted with water to a predetermined concentration (2000 ppm). To the water dilution was added the formulation of the compound I-(138) so that the concentration of the compound I became a predetermined concentration (800 ppm). To the resulting dilution was added 1/5000 by volume of a spreading agent (New Rinou manufactured by Nihon Nohyaku) to prepare a test diluted solution.
Separately, the formulation of the compound I-(138) was diluted with water to a predetermined concentration (800 ppm). To the water dilution was added 1/5000 by volume of a spreading agent (New Rinou manufactured by Nihon Nohyaku) to prepare a test diluted solution. […]
On the other hand, 3 mL of 1% agar was put in a glass cup having an internal diameter of 2.6 cm and a height of 4.5 cm. […] After 2 days, the life or death of the Bemisia tabaci imagoes was determined, and a controlling value was calculated by the above-described equation.

Take `CC#CCOc1cc(Cc2ccccc2Cl)ncn1` [compound X, 4-(2-chlorobenzyl)-6-(2-butynyloxy)pyrimidine]: the pest or weed control at 1000 ppm in the experiment on Bemisia tabaci [1] was found to be 25%. Also, in the experiment with Bemisia tabaci [2], the “Pest controlling value (%)” value is listed as 26%.
